{
  "source": "paper PMC10589072",
  "about": "“Evaluation of Potential Peptide-Based Inhibitors against SARS-CoV-2 and Variants of Concern” (BioMed Research International, 2023)",
  "key": {"[1]": {"target": "T1, SARS-CoV-2 spike S1 protein (Severe acute respiratory syndrome coronavirus 2, UniProt P0DTC2)", "T1 construct": "The fluorescent dye NT647 was used to label the SARS-CoV-2 spike S1; purchased Sino Biological 40591-V08H", "test": "biochemical", "assay_type": "binding"}, "[2]": {"tested_on": "293T ACE-2 SSC22 cells (HEK 293T expressing ACE2 receptor)", "protocol": "The cytotoxicity of the peptides was assessed using a viability assay. […] Cells with peptides were cultured for 3 days, after which cell viability was measured using an ATP assay (Promega, G9681)."}},
  "note": "Where no end group is shown, it is not given here.",
  "data": [
    {"substance": "IDWQFWFHYDKWDHEWEDEWYQSS-NH2 [Peptide P25]", "values": [
      {"measurement": "KD compared with ACE2-S protein affinity", "setting": "[1]", "result": "comparable to the observed affinity between the S protein and ACE2"},
      {"measurement": "Kd", "setting": "[1]; 21°C, read-out: KD (constant of dissociation)", "result": 42.2, "unit": "nM"},
      {"measurement": "cytotoxicity", "setting": "[2]; 0.125 to 4 mM, 72 hours, ATP assay, n = 3", "result": "low toxicity"},
      {"measurement": "cell viability", "setting": "[2]; 72 h, 4 mM", "result": "91-100%"}
    ]}
  ]
}
